Positions count from the first letter of the chain named. Where a name gives a salt, the structure may show the parent alone. Read-outs that look alike come from different tables or passages of the source. Each block holds one compound with its values, some of them ahead of it.
How the values were obtained:
[1] = single intravenous dose, comparison CRF antagonists with literature references; cited from earlier work
[2] = Volume of distribution after single intravenous dose; type: in vivo, rat; conditions: male Sprague Dawley rats, single 3 mg/kg intravenous dose
Protocol: The volume of distribution (Vdist) relates the amount of the drug in the body to the concentration of the drug in the blood or plasma. The volume of distribution refers to the fluid volume that would be required to contain the total amount of the drug in the body at the same concentration as in the blood or plasma: Vdist=amount of drug in the body/concentration of drug in blood or plasma (Goodman and Gillman's). For a 10 mg dose and a plasma concentration of 10 mg/L, the volume of distribution would be 1 liter. The volume of distribution reflects the extent to which the drug is present in the extravascular tissue. A large volume of distribution reflects the tendency of a compound to bind to the tissue components compared with plasma protein binding. In a clinical setting, Vdist can be used to determine a loading dose achieve a steady state concentration.
To test for volume of distribution, Male Sprague Dawley rats (N=3) are administered a single 3 mg/kg intravenous dose of compound. Multiple plasma samples are collected at time points from 0.08 to 24 hours post-dose. The plasma samples are analyzed by LC/MS/MS to determine the plasma concentrations. Plasma pharmacokinetic calculations are performed to determine the pharmacokinetic parameters including Vdist and plasma clearance (Clp).

human CRF1 = target: T1, human CRF1 (Homo sapiens, UniProt P34998); experiment: CRF1 filter binding assay; conditions: HEK-hCRF1 membranes, 125I-sauvagine; read-out: Ki (inhibition constant)
T1 construct: expressed in transfected cells; membranes used
T1 sequence (P34998 24-415): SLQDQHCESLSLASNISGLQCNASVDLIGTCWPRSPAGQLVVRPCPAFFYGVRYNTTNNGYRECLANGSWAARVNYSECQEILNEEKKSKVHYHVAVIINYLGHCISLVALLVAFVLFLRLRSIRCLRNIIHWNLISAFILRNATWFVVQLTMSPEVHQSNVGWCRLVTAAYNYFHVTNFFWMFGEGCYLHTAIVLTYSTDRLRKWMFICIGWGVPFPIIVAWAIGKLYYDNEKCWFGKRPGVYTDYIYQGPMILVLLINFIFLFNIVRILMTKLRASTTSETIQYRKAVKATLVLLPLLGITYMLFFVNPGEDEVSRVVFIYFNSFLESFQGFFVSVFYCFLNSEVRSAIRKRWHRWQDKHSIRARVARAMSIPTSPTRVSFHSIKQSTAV
Protocol: The limitations of plasmid-based human CRF1 expression, in terms of generating a recombinant cell line with sufficient receptor density to develop a binding assay, are overcome by using a Phoenix retroviral expression system licensed from Stanford. The stable HEK-hCRF1 cell line is used to prepare membranes and binding reactions (200 μl) are set up as follows: 50 μl of ^125I-sauvagine (0.2 nM final), 50 μl compound and 100 μl CRF1 membrane (25 μg/reaction). The reactions are incubated at room temperature for 2 hours and then terminated by filtration through pre-treated FB Millipore glass fiber filter plates (96 well). The plates are wash twice with ice-cold assay buffer (50 mM tris, 12.5 mM NaCl, 1 mM EDTA, 10 mM MgCl2, 0.05% BSA, pH 7.2), air dried over night and counted with 100 μl Microscint 40 in a MicroBeta counter. Non-specific binding (NSB) is determined in the presence of 0.5 μM non-labeled sauvagine. Triplicate determinations are typically run and the median data points plotted by Graph Pad Prism.

human CRF2 = target: T2, human CRF2 (Homo sapiens, UniProt Q13324); experiment: CRF2 filter binding assay; conditions: 50 μM compound, HEK-hCRF2 membranes, 125I-sauvagine
T2 construct: expressed in transfected cells; membranes used
T2 sequence (Q13324 1-411): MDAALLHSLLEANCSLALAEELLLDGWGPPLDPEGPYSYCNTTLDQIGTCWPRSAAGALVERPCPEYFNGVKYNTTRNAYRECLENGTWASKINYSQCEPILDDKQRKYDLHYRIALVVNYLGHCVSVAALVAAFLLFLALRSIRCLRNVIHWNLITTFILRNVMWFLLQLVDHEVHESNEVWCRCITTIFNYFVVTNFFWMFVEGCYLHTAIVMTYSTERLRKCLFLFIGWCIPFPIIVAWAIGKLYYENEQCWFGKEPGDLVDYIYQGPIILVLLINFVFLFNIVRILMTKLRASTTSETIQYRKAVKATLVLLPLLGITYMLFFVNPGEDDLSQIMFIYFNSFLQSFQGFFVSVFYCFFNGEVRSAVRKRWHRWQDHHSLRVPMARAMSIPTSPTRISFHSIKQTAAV
Protocol: The limitations of plasmid-based human CRF2 expression, in terms of generating a recombinant cell line with sufficient receptor density to develop a binding assay, are overcome by using a Phoenix retroviral expression system licensed from Stanford. The stable HEK-hCRF2 cell line is used to prepare membranes and binding reactions (200 μl) are set up as follows: 50 ul of ^125I-sauvagine (0.2 nM final concentration), 50 μl compound and 100 μl CRF2 membrane (25 μg/reaction). The reactions are incubated at room temperature for 2 hours and then terminated by filtration through pre-treated FB Millipore glass fiber filter plates (96 well). The plates are washed twice with ice-cold assay buffer (50 mM tris, 12.5 mM NaCl, 1 mM EDTA, 10 mM MgCl2, 0.05% BSA, pH 7.2), air dried over night and counted with 100 μl Microscint 40 in a MicroBeta counter. Non-specific binding (NSB) is determined in the presence of 0.5 μM non-labeled sauvagine. Alternatively, compounds are evaluated using a Scintillation Proximity assay. […] Bound radioactivity is assessed using a Wallac Trilux scintillation counter. Binding is assessed typically using triplicate determinations and the median data points plotted by Graph Pad Prism. […]

[3] = target: T3, binding of 125I-sauvagine to the cerebellum (Rattus norvegicus, UniProt P35353); experiment: In vivo potency assessment using ex vivo binding; conditions: oral route, ex vivo 125I-sauvagine binding to cerebellum
T3 construct: from tissue; host or cells: rat cerebellum
T3 sequence (P35353 24-415): T1 sequence (P34998 24-415) with H6R, S9N, A13T, I16V, M153V, G163A, I209V, Y229H, H356R
Protocol: To assess in vivo potency, a compound of the present invention is evaluated using ex vivo binding. Using the procedures as provided in D. R. Gehlert et al., EJP 509: 145-153 (2005), a compound is administered to a rat via the oral route.

Structure (SMILES): CCCCN(CC)c1nc(C)nc2c1c(C)cn2-c1c(C)cc(C)cc1C [CP154526]
rat Vdist [1]: 114 L/kg

rat Vdist [2]: 17 L/kg
Structure (SMILES): CCC(CC)c1cc(C)nn2c(-c3sc(-c4ccc(F)cc4)cc3C)c(C)nc12 [Example 39, 8-(1-ethyl-propyl)-3-[5-(4-fluoro-phenyl)-3-methyl-thiophen-2-yl]-2,6-dimethyl-imidazo[1,2-b]pyridazine]

rat Vdist [2]: 9 L/kg
Structure (SMILES): CCC(CC)c1cc(C)nn2c(-c3sc(-c4ncnn4C)nc3Br)c(C)nc12 [Example 48, 3-[4-bromo-2-(2-methyl-2H-[1,2,4]triazol-3-yl)-thiazol-5-yl]-8-(1-ethyl-propyl)-2,6-dimethyl-imidazo[1,2-b]pyridazine]

rat Vdist [2]: 44 L/kg
Structure (SMILES): CCC(CC)c1cc(C)nn2c(-c3sc(-c4ncnn4C)cc3Cl)c(C)nc12 [Example 88, 3-[3-chloro-5-(2-methyl-2H-[1,2,4]triazol-3-yl)-thiophen-2-yl]-8-(1-ethyl-propyl)-2,6-dimethyl-imidazo[1,2-b]pyridazine]

Ki (human CRF1): 4.92 ± 0.57 nM | inhibition at 50 µM (human CRF2; read-out: percent inhibition at 50 μM): 9 ± 2.6%
Structure (SMILES): CCC(CC)c1cc(C)nn2c(-c3sc(N4CCOCC4)nc3Cl)c(C)nc12 [Example 102, N-{4-chloro-5-[8-(1-ethyl-propyl)-2,6-dimethyl-imidazo[1,2-b]pyridazin-3-yl]-thiazol-2-yl}-morpholine, hydrochloride salt]

ED50 [3]: 1.3 mg/kg | Ki (human CRF1): 9.98 ± 0.72 nM | percent inhibition at 50 μM (human CRF2): 16.9±1.9% | rat Vdist [2]: 2 L/kg
Structure (SMILES): CCC(CC)c1cc(C)nn2c(-c3sc(N4CCOCC4)nc3Cl)c(C)nc12 [Example 199, N-{4-chloro-5-[8-(1-ethyl-propyl)-2,6-dimethyl-imidazo[1,2-b]pyridazin-3-yl]-thiazol-2-yl}-morpholine]

Structure (SMILES): CCCN(CCC)c1cc(C)nc2c(-c3cnc(N(C)C)cc3C)c(C)nn12 [NBI30775]
rat Vdist [1]: 76 L/kg

From patent US7612067B2, “Imidazopyridazine compounds” (Eli Lilly and Company, priority 2005, dated 2009)
